Laboratory results reported in ChEMBL document CHEMBL5120812, “Cytotoxic Nitrobenzoyl Sesquiterpenoids from an Antarctica Sponge-Derived Aspergillus insulicola” (J Nat Prod, 2022).
Counter-ions that a name gives are not always drawn.

Assays:
Format in all cases: functional, cell-based
ASPC1 = assay: Cytotoxicity against human ASPC1 cells assessed as inhibition of cell growth incubated for 72 hrs by SRB assay; settings: ASPC1, 72 h
MDA-MB-231 = assay: Cytotoxicity against human MDA-MB-231 cells assessed as inhibition of cell growth incubated for 72 hrs by SRB assay; settings: MDA-MB-231, 72 h
PANC-1 = assay: Cytotoxicity against human PANC-1 cells assessed as inhibition of cell growth incubated for 72 hrs by SRB assay; settings: PANC-1, 72 h
BXPC-3 = assay: Cytotoxicity against human BXPC-3 cells assessed as inhibition of cell growth incubated for 72 hrs by SRB assay; settings: BXPC-3, 72 h

Row | SMILES | IC50 (ASPC1) [nM] | IC50 (MDA-MB-231) [nM] | IC50 (PANC-1) [nM] | IC50 (BXPC-3) [nM]
1 | C=C(CCCCCCCC(=O)OC[C@@]1(C)CCC[C@]2(C)[C@H]3COC(=O)C3=C[C@@H](OC(=O)c3ccc([N+](=O)[O-])cc3)[C@@H]12)C(=O)O | > 30000 | > 30000 | > 30000 | –
2 | Nc1ccn([C@@H]2O[C@H](CO)[C@@H](O)C2(F)F)c(=O)n1 [GEMCITABINE] | 7500 | – | 8300 | 40
3 | COc1cccc2c1C(=O)c1c(O)c3c(c(O)c1C2=O)C[C@@](O)(C(=O)CO)C[C@@H]3O[C@H]1C[C@H](N)[C@H](O)[C@H](C)O1 [DOXORUBICIN HYDROCHLORIDE] | 300 | 200 | 900 | –
